Laboratory results published in US20100069501A1, “Pharmaceutical Composition Comprising 6-Dimethylaminomethyl-1-(3-methoxy-phenyl)-cyclohexane-1,3-diol and Paracetamol” (GRUENENTHAL GmbH, priority 2008, published 2010).
Where a name gives a salt, the structure may show the parent alone.

System: inflammatory pain
Assay: Randall-Selitto test in rats (carrageenan-induced acute inflammation, mechanical nociceptive threshold)
Type: in vivo
Conditions: rat; for time point of peak effect: substance applied alone, A i.v., paracetamol i.p.
Description: The weight ratios of the components (a) and (b) that will lead to a supra-additive effect (synergistic effect) of the inventive pharmaceutical composition may be determined via the test of Randall and Selitto as described in Arch. Int. Pharmacodyn., 1957, 111: 409 to 419, which is a model for inflammatory pain. The respective part of the literature is hereby incorporated by reference and forms part of the present disclosure.
Acute inflammation is induced by an intraplantar injection of 0.1 ml of a carrageenan solution (0.5% in distilled water) into one hind paw. The mechanical nociceptive threshold is measured 4 hours after carrageenan injection using an Algesiometer (Ugo Basile, Italy). The device generates a mechanical force with a linear increase over time. The force is applied to the dorsal surface of the inflamed rat hind paw via a cone-shaped stylus with a rounded tip (2 mm tip diameter). The nociceptive threshold is defined as the force (in grams) at which the rat vocalises (cut-off force 250 g). […] The antinociceptive and antihyperalgesic activity of the tested substance is expressed as percentages of the maximal possible effect (% MPE). The group size is n=10.
The interactions studies presented herein were performed using equieffective doses of the two components, calculated from the ratio of the respective ED50 values of the components if administered alone.
Thus, the time point of ED50 calculation of the combination corresponds to the timepoint of the peak effect of the respective compound.

Row | SMILES | ED50 (iv, 0.25 h, i.v., 15 min p. appl. (peak effect), % MPE, n=10, read-out: ED50 of A applied alone) | time point of peak effect
1 | COc1cccc([C@@]2(O)C[C@H](O)CC[C@@H]2CN(C)C)c1 (racemic) [A, (1RS,3RS,6RS)-6-dimethylaminomethyl-1-(3-methoxy-phenyl)-cyclohexane-1,3-diol hydrochloride] | 15.8 mg/kg | 15 min
2 | CC(=O)Nc1ccc(O)cc1 [Paracetamol] |  | 120 min
